Reference: PubChem BioAssay (NCI)
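All cell lines were grown in 96-well plates and treated with compound for 48 hours. GI50: concentration for 50% inhibition of growth. TGI marks complete inhibition of growth.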

Columns and labels:
Test in all cases: NCI tumour cell line growth inhibition, 48 h
A498 renal = system: A498 renal
BT-549 breast = system: BT-549 breast
CAKI-1 renal = system: CAKI-1 renal
DU-145 prostate = system: DU-145 prostate
HS 578T breast = system: HS 578T breast
MALME-3M melanoma = system: MALME-3M melanoma
NCI/ADR-RES ovarian = system: NCI/ADR-RES ovarian
PC-3 prostate = system: PC-3 prostate
SF-268 CNS = system: SF-268 CNS
SK-OV-3 ovarian = system: SK-OV-3 ovarian

Row | Compound | TGI (A498 renal) [µM] | TGI (BT-549 breast) [µM] | TGI (CAKI-1 renal) [µM] | TGI (DU-145 prostate) [µM] | TGI (HS 578T breast) [µM] | TGI (MALME-3M melanoma) [µM] | TGI (NCI/ADR-RES ovarian) [µM] | TGI (PC-3 prostate) [µM] | TGI (SF-268 CNS) [µM] | TGI (SK-OV-3 ovarian) [µM] | GI50 (A498 renal) [µM] | GI50 (BT-549 breast) [µM] | GI50 (CAKI-1 renal) [µM] | GI50 (DU-145 prostate) [µM] | GI50 (HS 578T breast) [µM] | GI50 (MALME-3M melanoma) [µM] | GI50 (NCI/ADR-RES ovarian) [µM] | GI50 (PC-3 prostate) [µM] | GI50 (SF-268 CNS) [µM] | GI50 (SK-OV-3 ovarian) [µM]
1 | CCCCCCCCCCCNC=O | 86.7 | 57.5 | > 100 | > 100 | > 100 | > 100 | 96.6 | 66.9 | > 100 | > 100 |  |  |  |  |  |  |  |  |  | 
2 | O=c1cc(-c2ccccc2)[nH]c2c1CCCC2 | 7.83 | > 100 | > 100 | 8.35 | 8.56 | > 100 | 5.73 | > 100 | > 100 | > 100 | 1.44 | 21.5 | 0.944 | 2.47 | 2.01 | 3.48 | 1.69 | 3.18 | 7.72 | 5.11
3 | NC(N)=NC(N)=Nc1ccc(C(=O)O)cc1 | > 100 | > 100 | > 100 | > 100 | > 100 | > 100 | > 100 | > 100 | > 100 | > 100 |  |  |  |  |  |  |  |  |  | 
4 | CC1CCCC(C#N)(NOC2=NCCN2)C1 (stereo not drawn) |  | 42.3 | 79 | > 100 | > 100 |  | > 100 | > 100 | > 100 |  |  | 19 | 22.7 | 24.1 | 52.3 |  | > 100 | > 100 | 60.3 | 
5 | CCCCCCCC(=O)[O-].CCCCCCCC(=O)[O-].N.N.N.N.[Co+3].[O-][Cl+3]([O-])([O-])[O-] |  |  |  |  |  | > 100 |  |  | > 100 | > 100 |  |  |  |  |  | > 100 |  |  | 19.1 | > 100
6 | O=C(c1ccccc1)c1nnn(Cc2ccccc2Cn2nnc(C(=O)c3ccccc3)c2C(=O)c2ccccc2)c1C(=O)c1ccccc1 | > 100 |  | > 100 |  |  | > 100 |  |  | > 100 | > 100 |  |  |  |  |  |  |  |  |  | 
7 | Nc1nc(Cl)nc2c1ncn2C1OC(CO)C(O)C1F (stereo not drawn) | 2.55 | > 37.6 | 0.959 |  | > 80.7 | > 46.2 | 4.98 | > 100 | 21.3 | > 100 | 0.284 | 0.664 | 0.0351 | 0.278 | 4.71 | 0.195 | < 0.0166 | 99.7 | 0.223 | 0.355
8 | O=c1c2ccccc2oc2ccccc12 (tested in a mixture with another compound) | 82.5 |  | > 100 |  |  | 8.18 |  |  | > 100 | 62.5 |  |  |  |  |  |  |  |  |  | 
9 | N#CC1=C(N)NC(N2CCOCC2)=NC12Nc1ccccc1O2 (stereo not drawn) |  | > 100 | 86.7 | > 100 | 68.1 | > 100 | > 100 | > 100 | > 100 | > 100 |  | 43.5 | 25.3 | 59.3 | 23.6 | > 100 | 34.2 | 31.8 | 33.8 | > 100
10 | CN1CCN(Cc2ccc(NC(=O)c3[nH]ncc3Nc3ncnc4[nH]ccc34)cc2)CC1 | 0.406 | 1.07 | 8.19 | > 100 | 0.98 | 0.959 | > 100 | > 100 | 1.42 |  | 0.149 | 0.297 | 1.83 | 0.311 | 0.197 | 0.472 | 7.16 | 0.372 | 0.374 | 
11 | CC(C)N(C(=O)C12C3C4C5(C(=O)O)C(C1C35I)C42C(=O)O)C(C)C (stereo not drawn) | > 100 |  |  |  |  | > 100 |  |  | > 100 | > 100 |  |  |  |  |  |  |  |  |  | 
12 | CC(C)C1(NC(=O)C2CC3c4cccc5[nH]cc(c45)CC3N(C)C2)OC2(O)C3CCCN3C(=O)C(Cc3ccccc3)N2C1=O (stereo not drawn) |  | > 100 | > 100 | > 100 | > 100 |  | > 100 | > 100 | > 100 |  |  |  |  |  |  |  |  |  |  | 
13 | Cc1ccccc1-n1c(=S)[nH]c2c(sc(=O)n2-c2ccccc2C)c1=O | > 100 |  | > 100 |  |  | > 100 |  |  | > 100 | > 100 |  |  |  |  |  |  |  |  |  | 
14 | CCOC(=O)c1c(-c2ccccc2)[n+](=O)c2cc(F)c(F)cc2n1[O-] | 17 | 3.26 | 3.12 | 3.55 | 6.26 |  | 2.66 | 3.16 | 4.07 | 3.57 | 5.02 | 1.6 | 1.61 | 1.78 | 2.38 |  | 0.924 | 1.65 | 1.66 | 2.03
15 | O=c1cc[nH]cc1-c1c[nH]ccc1=O | > 100 |  | > 100 |  |  | > 100 |  |  |  | > 100 |  |  |  |  |  |  |  |  |  | 
16 | CCC(C)(O)c1cn(-c2ccc(Cl)cc2)nn1 (stereo not drawn) | > 100 |  | > 100 |  |  | > 100 |  |  | > 100 | > 100 |  |  |  |  |  |  |  |  |  | 
17 | COC(=O)C(=O)C(C(=O)C(=O)Nc1ccccc1[N+](=O)[O-])c1nc2ccc([N+](=O)[O-])cc2[nH]c1=O (stereo not drawn) | > 100 |  | > 100 |  |  | > 100 |  |  | > 100 | > 100 |  |  |  |  |  |  |  |  |  | 
18 | CC(C)=Cc1cc(CCC/C(C)=C/Cc2c(O)cc(C)c(C(=O)O)c2O)co1 |  | > 100 | > 100 | > 100 | > 100 |  | > 100 | > 100 | > 100 |  |  |  |  |  |  |  |  |  |  | 
19 | CN1CCC(c2c(O)cc(O)c3c(=O)cc(-c4ccccc4Cl)oc23)C(O)C1 (stereo not drawn) |  |  |  |  |  | 0.598 |  |  | 0.238 | > 73.4 |  |  |  |  |  |  |  |  |  | 
20 | Brc1cc(C2OCCCO2)ccc1OCc1ccccc1 | > 100 |  | > 100 |  |  | > 100 |  |  | > 100 | > 100 |  |  |  |  |  |  |  |  |  | 
21 | CN1CCN=C1c1nnn(-c2ccc([N+](=O)[O-])cc2)c1-c1ccccc1 | > 100 |  | > 100 |  |  | > 100 |  |  | > 100 | > 100 |  |  |  |  |  |  |  |  |  | 
22 | CS(=O)(=O)c1ccc(COP(N)(=O)N(CCCl)CCCl)cc1 (stereo not drawn) | > 100 |  | > 100 |  |  | > 100 |  |  | > 100 | > 100 |  |  |  |  |  |  |  |  |  | 
